Results from patent US20170014422A1 (SYNTHON B.V., priority 2014, published 2017).
Where a name gives a salt, the structure may show the parent alone.

Assay: Laboratory observation of polymorphic transformation of polymorph IV in pharmaceutical compositions
Type: physicochemical
Conditions: especially in pharmaceutical compositions; more pronounced in humid environments

COc1cc2c(cc1OC)CC(=O)N(CCCN(C)C[C@H]1Cc3cc(OC)c(OC)cc31)CC2 [ivabradine hydrochloride polymorph IV, 3-(3-{[((7S)-3,4-dimethoxybicyclo[4.2.0]octa-1,3,5-trien-7-yl)methyl]methylamino}propyl)-7,8-dimethoxy-1,3,4,5-tetrahydro-2H-3-benzazepin-2-one]
Polymorphic stability over time: transforms over time into the more stable polymorph β
